Values after ≈ are worked out from the molar mass of the structure shown. Where a SMILES comes first, the peptide text is derived from it. A value given as a limit tells only on which side of the number the result lay.

For data set [1], the system named is horse red cells (defibrinated horse blood). Briefly: Haemolysis assay. It is filed as cell-based. The settings on record: 2% (v/v) horse red cell suspension mixed 1:1 with peptide in PBS, 37 ℃ 2 h, absorbance 570 nm, 0.1% Triton X-100 positive control; nine replicates from three independent tests. The procedure:
The haemolysis assay was conducted on defibrinated horse blood (TCS Biosciences Ltd., Buckingham, UK), which was washed by PBS in advance. The peptides were dissolved in PBS to the concentration of 1024 μM, and a series of two-fold dilutions was made by PBS as well. A volume of different concentrations of 120 μL peptide solutions were mixed with the same volume of 2% (v/v) of horse red cell suspension gently in a 1.5 mL tube, and the complex was incubated at 37 ℃ for 2 h. PBS and 0.1% Triton X-100 with the same volume were used as the negative and positive controls, respectively. Each group had three replicates. After the incubation, 100 μL supernatant of each tube was aspirated into a new 96-well plate, and their absorbances were analysed by a microplate reader (EL808, Biolise BioTek Winooski, Minneapolis, USA) at a wavelength of 570 nm. The equation to calculate the haemolysis of the peptides is shown below. (2) […]=(A−An)/(Ap−An)×100%
A represents the absorbance of each well in the sample groups. An represents the average absorbance of the wells in the negative control group. Ap represents the average absorbance of the wells in the positive control group.

Another data set has as its system E. coli (ATCC BAA-2340). The format is cell-based, Escherichia coli. The gist of the method: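 CLSI broth microdilution in Mueller Hinton Broth, with log-phase bacteria diluted to 5 × 10^5 CFU/mL and peptides added from a two-fold DMSO series (512 µM to 1 µM, as dosed; 1% DMSO in well). After overnight growth at 37 °C, absorbance at 550 nm gave the MIC as the lowest concentration showing no growth.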

The subject of data set [2] is MRSA (NCTC 12493) biofilm. The format is cell-based, Methicillin-resistant Staphylococcus aureus. The settings on record: NCTC 12493, 24 h. The procedure: The anti-biofilm activities of the peptides against S. aureus (ATCC 6538), MRSA (NCTC 12493), E. faecalis (NCTC 12493), E. coli (ATCC CRM 8739), K. pneumoniae (ATCC 43816), and P. aeruginosa (ATCC CRM 9027) were evaluated.
The bacteria were inoculated in a different medium (Gram-positive bacteria were in TSB and Gram-negative bacteria were in LB) overnight, and the subculture was conducted in the same medium. When the bacteria reached a specific density, 100 µL of the dilution was added to each well of the 96-well microplate. Then 1 µL of peptide at a series of concentrations, the same concentration in the antimicrobial assay, were added into the well together with the bacteria. The plates were put into a moist shaking incubator with a speed of 200 rpm, and the temperature was set at 37 ℃. After a 24-h incubation, the liquid in the wells was aspirated, and each was washed twice by 100 µL PBS. One hundred µL of methanol were added into each well to stabilise the biofilm. After air-drying, 100 µL crystal violet was used to dye the biofilm, and they were dissolved in the 100 µL glacial acidic acid after drying. The solutions were transferred to a new microplate, and the absorbance of each well was tested by a microplate reader (EL808, Biolise BioTek Winooski, Minneapolis, MN, USA) at 595 nm wavelength. MBIC was the minimum concentration of the peptide showing no biofilm formation.
The bacteria were inoculated in a different medium (Gram-positive bacteria were in TSB and Gram-negative bacteria were in LB) overnight, and the subculture was conducted in the same medium. When the bacteria reached a specific density, 100 µL of the dilution was added to each well of the 96-well microplates. The plates were put into a moist shaking incubator with a speed of 200 rpm and the temperature was 37 ℃. […] The solutions were transferred to a new microplate, and the absorbance of each well was tested by a microplate reader (EL808, Biolise BioTek Winooski, Minneapolis, USA) at 595 nm wavelength.

The test system of data set [3] is wax moth (Galleria mellonella). Briefly: Toxicity of peptides to waxworms. The format is in vivo. The settings on record: uninfected waxworms, 7.5, 15 and 30 mg/kg, injection.

As to `CC[C@H](C)[C@H](NC(=O)[C@@H](NC(=O)CN)C(C)C)C(=O)N[C@H](C(=O)N[C@@H](CCCCN)C(=O)N[C@H](C(=O)N[C@@H](CC(C)C)C(N)=O)[C@@H](C)O)[C@@H](C)CC` [Peptide 7-tB2U-K] (H-GVIIKTL-NH2), in data set [1], the concentration for 50% haemolysis (HC50) (in general, the concentration that lyses half of the red blood cells) is 11,008 μM. Moreover, in the data set on E. coli (ATCC BAA-2340), the MBC (in general, the smallest concentration meeting the test's criterion for killing) is greater than 512 µM and the MIC (usually the lowest concentration found to suppress growth) is greater than 512 µM.
`CC[C@H](C)[C@H](NC(=O)[C@@H](NC(=O)CN)C(C)C)C(=O)N[C@H](C(=O)N[C@@H](CC(=O)O)C(=O)N[C@H](C(=O)N[C@@H](CC(C)C)C(=O)N[C@@H](CCCCN)C(=O)NCC(=O)N[C@@H](C)C(=O)N[C@@H](C)C(=O)N[C@@H](CCCCN)C(=O)N[C@H](C(=O)N[C@H](C(=O)N[C@@H](C)C(=O)N[C@@H](C)C(=O)N[C@@H](CCC(=O)O)C(=O)N[C@@H](CC(C)C)C(=O)N[C@@H](CC(C)C)C(N)=O)C(C)C)[C@@H](C)O)[C@@H](C)O)[C@@H](C)CC` [tB2U-α] (H-GVIIDTLKGAAKTVAAELL-NH2): the HC50 in data set [1] is on record as 15,609 μM. In the data set with E. coli (ATCC BAA-2340), the MBC was greater than 512 µM and the MIC was greater than 512 µM.
As to `CC[C@H](C)[C@H](NC(=O)[C@@H](NC(=O)CN)C(C)C)C(=O)N[C@H](C(=O)N[C@@H](CCCCN)C(=O)N[C@@H](CCCCN)C(=O)N[C@@H](CC(C)C)C(=O)N[C@@H](CCCCN)C(=O)NCC(=O)N[C@@H](C)C(=O)N[C@@H](C)C(=O)N[C@@H](CCCCN)C(=O)N[C@@H](CCCCN)C(=O)N[C@H](C(=O)N[C@@H](C)C(=O)N[C@@H](C)C(=O)N[C@@H](CCCCN)C(=O)N[C@@H](CC(C)C)C(=O)N[C@@H](CC(C)C)C(N)=O)C(C)C)[C@@H](C)CC` [tB2U-6K] (H-GVIIKKLKGAAKKVAAKLL-NH2), the 50% haemolytic concentration (HC50) in data set [1] stood at 6506 µM. In the data set with E. coli (ATCC BAA-2340), this molecule came in with an MBC of 8 µM (≈ 15.6 µg/mL) and an MIC of 8 µM (≈ 15.6 µg/mL). The same molecule came in with an MBIC in data set [2] of 32 µM. For the same molecule, the “survival rate of waxworms treated with peptide” value in data set [3] amounted to 100%.
For `CC[C@H](C)[C@H](NC(=O)[C@@H](NC(=O)CN)C(C)C)C(=O)N[C@H](C(=O)N[C@@H](CCCCN)C(=O)N[C@H](C(=O)N[C@@H](CC(C)C)C(=O)N[C@@H](CCCCN)C(=O)NCC(=O)N[C@@H](C)C(=O)N[C@@H](C)C(=O)N[C@@H](CCCCN)C(=O)N[C@H](C(=O)N[C@H](C(N)=O)C(C)C)[C@@H](C)O)[C@@H](C)O)[C@@H](C)CC` [Peptide 14-tB2U-K] (H-GVIIKTLKGAAKTV-NH2), the HC50 in data set [1] is listed as 10,834 μM. In addition, in the data set on E. coli (ATCC BAA-2340), the MBC is greater than 512 µM and the MIC was greater than 512 µM.
As to `CC[C@H](C)[C@H](NC(=O)[C@@H](NC(=O)CN)C(C)C)C(=O)N[C@H](C(=O)N[C@@H](CC(=O)O)C(=O)N[C@H](C(=O)N[C@@H](CC(C)C)C(=O)N[C@@H](CCCCN)C(=O)NCC(=O)N[C@@H](C)C(=O)N[C@@H](C)C(=O)N[C@@H](CCCCN)C(=O)N[C@H](C(=O)N[C@H](C(=O)N[C@@H](C)C(=O)N[C@@H](C)C(=O)N[C@@H](CCC(=O)O)C(=O)N[C@@H](CC(C)C)C(=O)N[C@@H](CC(C)C)C(=O)N[C@@H](CCCNC(=N)N)C(=O)N[C@@H](CCCCN)C(=O)N[C@@H](C)C(=O)N[C@@H](Cc1c[nH]cn1)C(N)=O)C(C)C)[C@@H](C)O)[C@@H](C)O)[C@@H](C)CC` [tB2U] (H-GVIIDTLKGAAKTVAAELLRKAH-NH2), the HC50 in data set [1] is on record as 16,393 μM.
Consider `CC[C@H](C)[C@H](NC(=O)[C@@H](NC(=O)CN)C(C)C)C(=O)N[C@H](C(=O)N[C@@H](CCCCN)C(=O)N[C@H](C(=O)N[C@@H](CC(C)C)C(=O)N[C@@H](CCCCN)C(=O)NCC(=O)N[C@@H](C)C(=O)N[C@@H](C)C(=O)N[C@@H](CCCCN)C(=O)N[C@H](C(=O)N[C@H](C(=O)N[C@@H](C)C(=O)N[C@@H](C)C(=O)N[C@@H](CCCCN)C(=O)N[C@@H](CC(C)C)C(=O)N[C@@H](CC(C)C)C(N)=O)C(C)C)[C@@H](C)O)[C@@H](C)O)[C@@H](C)CC` [tB2U-K] (H-GVIIKTLKGAAKTVAAKLL-NH2), for which, in data set [1], the HC50 worked out at 3056 µM. Moreover, in the data set with E. coli (ATCC BAA-2340), the MBC amounted to 16 µM (≈ 30.3 µg/mL) and the lowest concentration to inhibit growth (MIC) was 16 µM (≈ 30.3 µg/mL). In data set [2], this molecule had an MBIC of 16 µM. Moreover, the “survival rate of waxworms treated with peptide” value in data set [3] stood at 100%.

For the origin of these results see publication PMC8388802, “Study on the Structure-Activity Relationship of an Antimicrobial Peptide, Brevinin-2GUb, from the Skin Secretion of Hylarana guentheri” (Antibiotics, 2021).
